How the values were obtained:
[1] = tested on: ocular substrate; assay: Subject's report on a gas permeable (hard) contact lens coated with 2–3 drops of the ophthalmic fluid; format: in vivo
Excerpt: (§1) In use, 2–3 drops of the ophthalmic fluid of the present invention are placed onto the inside surface of the contact lens. The ophthalmic fluid is then distributed to cover fully and evenly the inside surface of the contact lens by rubbing the ophthalmic fluid into the lens with a fingertip or any other suitable applicator. It is envisaged that the ophthalmic fluid will be biologically sterile. The inside of a contact lens was coated with 2–3 drops of the ophthalmic fluid of the present invention and fitted to the subject in the conventional manner. The subject reported on the perceived ease of inserting the coated lens, the subject's sensual reaction to the coated lens and the resulting vision through the coated lens, in relation to hard and soft contact lenses.

[2] = tested on: ocular substrate; assay: Subject's report on a hydrogel (soft) contact lens coated with 2–3 drops of the ophthalmic fluid; format: in vivo
Excerpt: as §1, with “The ophthalmic fluid of the present invention is suitable for use with gas permeable (hard) contact lenses or hydrogel (soft) contact lenses. In” for “In”

Compound	subject's sensual reaction to the coated lens (comfort/irritation) [1]	tear production/expulsion and maceration [1]	vision through the coated lens [1]	time after which initially blurred vision cleared [2] [min]	vision through the coated lens [2]	comfort once the coated lens was inserted [2]	sensation/discomfort caused by the edges of the lens on the eye [1]	time after which initially blurred vision cleared [1]	sensation upon insertion / amelioration of the normal discomfort when inserting a soft lens [2]	tear production/expulsion and maceration [2]
CC/C=C\C/C=C\C/C=C\CCCCCCCC(=O)OCC(COC(=O)CCCCCCC/C=C\C/C=C\C/C=C\CC)OC(=O)CCCCCCC/C=C\C/C=C\C/C=C\CC [trilinolenin, 1,2,3-tri(cis, cis, cis −9,12,15-octadecatrienoyl)glycerol]	extreme irritation	increased tear production and maceration of the ocular substrate	blurred	2	initially experienced blurred vision	comfortable to wear	–	–	–	–
CCCCCC/C=C\CCCCCCCC(=O)OCC(COC(=O)CCCCCCC/C=C\CCCCCC)OC(=O)CCCCCCC/C=C\CCCCCC [tripalmitolein, 1,2,3-tri(cis-9-hexadecenoyl)glycerol]	could not feel the presence of the coated lens	–	excessively blurred	–	blurred	comfortable	not reduced to the same extent	–	–	–
CCCCC/C=C\C/C=C\CCCCCCCC(=O)OCC(COC(=O)CCCCCCC/C=C\C/C=C\CCCCC)OC(=O)CCCCCCC/C=C\C/C=C\CCCCC [trilinolein, 1,2,3-tri(cis, cis-9,12octadecadienoyl)glycerol]	could not feel the presence of the coated lens	no tear expulsion	initially experienced blurred vision	–	immediately clear	could not feel the presence of the coated lens	not reduced to the same extent	approximately 60 seconds	noticeable amelioration of the normal discomfort	no tear expulsion
CCCCC/C=C\C/C=C\C/C=C\C/C=C\CCCC(=O)OCC(COC(=O)CCC/C=C\C/C=C\C/C=C\C/C=C\CCCCC)OC(=O)CCC/C=C\C/C=C\C/C=C\C/C=C\CCCCC [triarachidonin, 1,2,3-tri(cis, cis, cis, cis, −5,8,11,14-eicosatetraenoyl)glycerol]	comfortable to wear	did not experience tear production or maceration	excessively and persistently blurred	–	clear vision	–	–	–	did not produce any noticeable improvement in the wearer's comfort	increased tear production upon insertion of the soft lens, but no maceration

— patent US7115667B2, “Ophthalmic fluid” (Planned Products Pty Ltd., priority 1999, dated 2006)
